Results: patent US11338004B2, “Composition for preventing or treating cranial nerve disease comprising fomes fomentarius extract, fraction thereof, or compound isolated therefrom as active ingredient” (priority 2015, dated 2022)

Experiments:
[1] = tested on: NF-κB; test: Western blotting of LPS-induced NF-κB phosphorylation in BV2 cells; format: cell-based, mouse
Protocol: (§1) BV2 cells were placed in a 6-well plate at 7.5×10^5 cells/well, and stabilized at 37° C. and 5.0% CO2 for 12 hours. After that, LPS and the Fomes fomentarius CHCl3 fractions, the nonadecanone (2-Nonadecanone) or the docosenol (cis-13-Docosenol) compounds were placed according to groups and were incubated for 1 hour. The cell culture was collected and used for cytokine analysis. All the cell culture was removed, and then 1 ml of dPBS was dispensed to each well to wash and remove the wells. 200 μl of the lysis buffer was dispensed per well and the cells attached to the bottom of the well were removed with a cell scriper, and then were slowly mixed and reacted for […] on ice at 4° C. The cells were removed with a scriper again and all the lysis solution was collected. The collected lysis solution was centrifuged at 15,000 rpm for 15 minutes at 4° C. so that only the supernatant was collected. In order to plot standard curves for protein quantification, a standard BSA solution ([…]) and a dilution were prepared in which bradford solution and D.W. were diluted with 4:1. After the bradford dilution was dispensed in each 200 μl to 96-well, the standard BSA solution and the cell lysis supernatant were dispersed in a volume of 10 μl per well, and then they were mixed by pipetting. After 10 minutes, the protein was quantitated by measuring the absorbance at 595 nm in a reader. The subsequent procedures were carried out in the same manner as in the quantitative analysis of the protein of Example 3-3.

[2] = DPPH radical scavenging activity
Protocol: The present experiment used the property that the hydrazyl of diphenylpicrylhydrazyl (DPPH) used in the present experiment has a property of easily accepting a hydrogen atom since the nitrogen atom is unstable, so as to react with the antioxidant material to accept the hydrogen atom to lose its own orthochromatism.
First, in order to measure DPPH radical scavenging activity of the Fomes fomentarius fraction, 1.9 ml of 0.2 mM DPPH solution (99.5% ethanol) was added to 0.1 ml of solutions (control: 99.5% ethanol) in which the concentrated dried material of each Fomes fomentarius substance was prepared at 7 concentrations of 10, 20, 40, 80, 160, 320 and 640 μg/ml, respectively. The mixture was shaken with a vortex mixer for 10 seconds and then incubated at 37° C. for 30 minutes. Then, the absorbance was measured at 517 nm using a spectrophotometer.
As a positive control drug, L-ascorbic acid was prepared at […] of 10, 20, 40, 80, 160, 320, and 640 μg/mL (99.5% ethanol).
The present inventors measured DPPH radicals scavenging activity in the same manner as in Example <2-2> above using nonadecanone (2-nonadecanone) and docosenol (cis-13-Docosenol) compounds found in the above and Fomes fomentarius CHCl3 fraction of the present disclosure.
First, in order to measure DPPH radical scavenging activity of the Acer tegmentosum maxim extract, 1.9 ml of 0.2 mM DPPH solution (99.5% ethanol) was added to 0.1 ml of solutions (control: 99.5% ethanol) in which the concentrated dried material of each Acer tegmentosum maxim material was prepared at 7 concentrations of 10, 20, 40, 80, 160, 320 and 640 μg/ml, respectively. The mixture was shaken with a vortex mixer for 10 seconds and then incubated at 37° C. for 30 minutes. Then, the absorbance was measured at 517 nm using a spectrophotometer.
As a positive control, L-ascorbic acid was prepared at […] of 10, 20, 40, 80, 160, 320, and 640 μg/mL (99.5% ethanol).
First, in order to measure DPPH radical scavenging activity of the berchemia berchemiaefolia extract, 1.9 ml of 0.2 mM DPPH solution (99.5% ethanol) was added to 0.1 ml of solutions (control: 99.5% ethanol) in which the concentrated dried material of each berchemia berchemiaefolia material was prepared at 7 concentrations of 10, 20, 40, 80, 160, 320 and 640 μg/ml, respectively. The mixture was shaken with a vortex mixer for 10 seconds and then incubated at 37° C. for 30 minutes. Then, the absorbance was measured at 517 nm using a spectrophotometer.
First, in order to measure DPPH radical scavenging activity of the Lithospermum erythrorhizon extract, 1.9 ml of 0.2 mM DPPH solution (99.5% ethanol) was added to 0.1 ml of solutions (control: 99.5% ethanol) in which the concentrated dried material of each Lithospermum erythrorhizon material was prepared at 7 concentrations of 10, 20, 40, 80, 160, 320 and 640 μg/ml, respectively. The mixture was shaken with a vortex mixer for 10 seconds and then incubated at 37° C. for 30 minutes. Then, the absorbance was measured at 517 nm using a spectrophotometer.

[3] = tested on: p38; test: Western blotting of LPS-induced p38 phosphorylation in BV2 cells; format: cell-based, mouse
Protocol: as §1

[4] = tested on: NO production in mouse BV2 cell line; test: NO (nitrite) production in LPS-treated BV2 cells, Griess reagent; format: cell-based
Protocol: (§2) A mouse BV2 cell line was stored and maintained in a humidified incubator at 37° C. under a 5% CO2 condition using a DMEM culture medium supplemented with 10% FBS, 100 U/ml of penicillin and 100 μg/ml of streptomycin, was trypsinized, and was subcultured.
In the present disclosure, the amount of nitrite produced was measured to determine the anti-inflammatory activity of the Fomes fomentarius fraction. Nitrite is a major stable product of nitric oxide (NO), one of the inflammatory mediators, and was measured by using Griess reagent.
First, the cells were cultured at 5×10^5 cells/ml in a 6-well plate. They were treated with Fomes fomentarius extracts having various concentrations (5, 20, 50, and 100 μg/ml) and then reacted for 24 hours in the presence or absence of LPS ([…]). DMEM medium for BV2 cells and the fresh medium containing LPS (1 μg/ml) and the sample were treated at the same time and cultured for 24 hours. The amount of NO produced was determined using Griess reagent in which 100 μl of cell culture supernatant and 100 μl of Griess reagent [1% (w/v) sulfanilamide, 0.1% (w/v) naphthyl ethylenediamine in 2.5% (v/v) phosphoric acid] were mixed and reacted on a 96-well plate for 10 minutes, and then an ELISA reader was used to measure absorbance at 540 nm. Standard concentration curves were obtained by stepwise dilution of sodium nitrite (NaNO2).

[5] = tested on: IL-1β; test: IL-1β in LPS-treated BV2 cells; format: cell-based, mouse; parameters: unit not given here
Protocol: as §2, §1

SMILES | p-NF-κB/NF-κB ratio (%), expression ratio (vehicle 100%) ([1]; 5 μg/ml) | p-NF-κB/NF-κB ratio (%), expression ratio (vehicle 100%) ([1]; 20 μg/ml) | p-NF-κB/NF-κB ratio (%), expression ratio (vehicle 100%) ([1]; 50 μg/ml) | DPPH radical scavenging activity (% antioxidant activity) ([2]; 10 μg/mL) [%] | DPPH radical scavenging activity (% antioxidant activity) ([2]; 20 μg/mL) [%] | DPPH radical scavenging activity (% antioxidant activity) ([2]; 40 μg/mL) [%] | DPPH radical scavenging activity (% antioxidant activity) ([2]; 80 μg/mL) [%] | DPPH radical scavenging activity (% antioxidant activity) ([2]; 160 μg/mL) [%] | DPPH radical scavenging activity (% antioxidant activity) ([2]; 320 μg/mL) [%] | DPPH radical scavenging activity (% antioxidant activity) ([2]; 640 μg/mL) [%] | p-p38/p-38 ratio (%), expression ratio (vehicle 100%) ([3]; 5 μg/ml) | p-p38/p-38 ratio (%), expression ratio (vehicle 100%) ([3]; 20 μg/ml) | p-p38/p-38 ratio (%), expression ratio (vehicle 100%) ([3]; 50 μg/ml) | p-p38/p-38 ratio (%), expression ratio (vehicle 100%) ([3]; 100 μg/ml) | NO production (nitrite) ([4]; 5 μg/ml) | NO production (nitrite) ([4]; 20 μg/ml) | NO production (nitrite) ([4]; 50 μg/ml) | NO production (nitrite) ([4]; 100 μg/ml) | IL-1β level ([5]; 5 μg/ml) | IL-1β level ([5]; 20 μg/ml) | further results
CCCCCCCC/C=C\CCCCCCCCCCCCO [docosenol, cis-13-Docosenol] | about 41% | about 28% | about 8% | 1.3±0.4 | 2.6±0.2 | 5.8±0.6 | 7.7±0.6 | 6.6±0.7 | 8.8±1.1 | 10.6±0.9 | about 69% | about 48% | about 36% | about 25% | 8.04±0.55 | 5.56±0.61 | 4.42±0.48 | 2.76±40.59 | 65.15±7.6 | 59.12±6.1 | IL-1β level ([5]; 50 μg/ml): 50.55±4.2; IL-1β level ([5]; 100 μg/ml): 48.19±5.8
CCCCCCCCCCCCCCCCCC(C)=O [nonadecanone, 2-Nonadecanone] | about 35% | about 21% | about 15% | 5.6±0.9 | 8.9±0.8 | 11.6±1.1 | 13.5±1.4 | 14.6±1.0 | 16.8±2.1 | 20.5±1.8 | about 75% | about 54% | about 42% | about 29% | 2.98±0.78 | 2.35±0.68 | 1.99±0.39 | 1.62±0.41 | 70.12±4.8 | 65.56±5.1 | p-NF-κB/NF-κB ratio (%), expression ratio (vehicle 100%) ([1]; 100 μg/ml): about 12%; IL-1β level ([5]; 50 μg/ml): 58.11±6.5; IL-1β level ([5]; 100 μg/ml): 43.66±3.4
